Series [1] can be described thus: Cannabinoid profile of the cannabis extract by LCMS analysis. To be noted: cannabis extract labeled RB Fat.
Series [2] is described as follows: Cannabinoid profile of crystalline product samples by HPLC-DAD-MS analysis (cannabinoid preservation). To be noted: for Cannabinoid quantity, Avg R103A-C: average of Samples R103A-C; for Cannabinoid quantity, Avg R103A-C / Cannabinoid quantity in Control R104 / Cannabinoid quantity in Sample S103 / Cannabinoid quantity in Sample R103A / Cannabinoid quantity in Sample R103B: without rapid cooling process; for Cannabinoid quantity in Control R104: control crystalline product; for Cannabinoid quantity in Sample S201 / Cannabinoid quantity in Sample S103 / Cannabinoid quantity in Sample R104A / Cannabinoid quantity in (Retest) Sample R104A / Cannabinoid quantity in Sample R104B / Cannabinoid quantity in Sample R103A / Cannabinoid quantity in Sample R103B: crystalline product; for Cannabinoid quantity in Sample S201 / Cannabinoid quantity in Sample S103 / Change in cannabinoid quantity, Sample S201 compared to Sample S103: sodium chloride; for Cannabinoid quantity in Sample S201 / Cannabinoid quantity in Sample R104A / Cannabinoid quantity in (Retest) Sample R104A / Cannabinoid quantity in Sample R104B: with rapid cooling process; for Cannabinoid quantity in Sample S103: from RB-Fat; for Cannabinoid quantity in Sample R104A: original test; for Cannabinoid quantity in Sample R104B: stored for three months before being tested; for Cannabinoid quantity in Sample R103A / Cannabinoid quantity in Sample R103B: from RB Fat; for Change in cannabinoid quantity, Sample S201 compared to Sample S103: with vs without rapid cooling process.

“And” between values parts separate entries of the source, which are not always exact repeats. Equal values may be shown once.

Take `CCCCCc1cc(O)c2c(c1)OC(C)(CCC=C(C)C)C=C2` (centres unmarked) [CBC, Cannabichromene]: the “Cannabinoid quantity in Sample RB Fat” value in series [1] was determined as 0.63 mg/mL. In addition, in series [2] (sucrose), the “Cannabinoid quantity, Avg R103A-C” value is given as 0.45 mg/g; the “Cannabinoid quantity in Control R104” value is 0.8 mg/g; the “Cannabinoid quantity in Sample R104A” value turned out to be 1.18 mg/g; the “Cannabinoid quantity in (Retest) Sample R104A” value came out at 1.15 mg/g. In series [2] (sucrose), the “Cannabinoid quantity in Sample R104B” value is listed as 1.22 mg/g, the “Cannabinoid quantity in Sample R103A” value came to 0.47 mg/g and the “Cannabinoid quantity in Sample R103B” value turned out to be 0.45 mg/g. Moreover, in series [2], the “Cannabinoid quantity in Sample S201” value came to 0.84 mg/g; the “Cannabinoid quantity in Sample S103” value came to 0.94 mg/g; the “Change in cannabinoid quantity, Sample S201 compared to Sample S103” value (“Change in cannabinoid quantity” below) is given as “marginal differences”.
Take `C=C(C)[C@@H]1CCC(C)=C[C@H]1c1c(O)cc(CCCCC)cc1O` [CBD, Cannabidiol, reference compound]: in series [2] (sucrose), the “Cannabinoid quantity, Avg R103A-C” value is listed as “No detectable quantities”; the “Cannabinoid quantity in Control R104” value is 0.17 mg/g; the “Cannabinoid quantity in Sample R104A” value was 0.08 mg/g; the “Cannabinoid quantity in (Retest) Sample R104A” value is reported as 0.15 mg/g. In series [2] (sucrose), the “Cannabinoid quantity in Sample R104B” value came out at 0.17 mg/g. Moreover, in series [2], the “Cannabinoid quantity in Sample S201” value is given as 0.11 mg/g; the “Cannabinoid quantity in Sample S103” value worked out at 0.22 mg/g; the “Change in cannabinoid quantity” value is on record as “marginal differences”.
On to `C=C(C)[C@@H]1CCC(C)=C[C@H]1c1c(O)cc(CCCCC)c(C(=O)O)c1O` [CBD-A, Cannabidiolic acid], for which the “Cannabinoid quantity in Sample RB Fat” value in series [1] came to 0.12 mg/mL. Besides, in series [2] (sucrose), the “Cannabinoid quantity, Avg R103A-C” value is “No detectable quantities”; the “Cannabinoid quantity in Control R104” value was “undetectable quantities”; the “Cannabinoid quantity in Sample R104A” value was “negligible or no detectable quantities”.
As for `CCCCCc1cc(O)c(C/C=C(\C)CCC=C(C)C)c(O)c1` [CBG, Cannabigerol], the “Cannabinoid quantity in Sample RB Fat” value in series [1] was determined as 0.69 mg/mL. Moreover, in series [2] (sucrose), the “Cannabinoid quantity, Avg R103A-C” value is 0.28 mg/g; the “Cannabinoid quantity in Control R104” value amounted to 0.82 mg/g; the “Cannabinoid quantity in Sample R104A” value was 1.34 mg/g; the “Cannabinoid quantity in (Retest) Sample R104A” value stood at 1.29 mg/g. In series [2] (sucrose), the “Cannabinoid quantity in Sample R104B” value turned out to be 1.25 mg/g, the “Cannabinoid quantity in Sample R103A” value came to 0.32 mg/g and the “Cannabinoid quantity in Sample R103B” value worked out at 0.26 mg/g. Moreover, in series [2], the “Cannabinoid quantity in Sample S201” value was found to be 0.93 mg/g; the “Cannabinoid quantity in Sample S103” value came to 0.58 mg/g; the “Change in cannabinoid quantity” value was “marginal differences”.
Regarding `CCCCCc1cc(O)c(C/C=C(\C)CCC=C(C)C)c(O)c1C(=O)O` [CBG-A, cannabigerolic acid], the “Cannabinoid quantity in Sample RB Fat” value in series [1] stood at 1.22 mg/mL. Also, in series [2] (sucrose), the “Cannabinoid quantity, Avg R103A-C” value is reported as “no quantity of CBG-A was detected”; the “Cannabinoid quantity in Control R104” value was “undetectable quantities”; the “Cannabinoid quantity in Sample R104A” value is given as “negligible or no detectable quantities”.
Consider `CCCCCc1cc2c(c(O)c1C(=O)O)C1C3C(CCC3(C)O2)C1(C)C` (centres unmarked) [CBL-A, cannabicyclol acid], for which the “Cannabinoid quantity in Sample RB Fat” value in series [1] was 0.38 mg/mL. For the same compound, in series [2] (sucrose), the “Cannabinoid quantity, Avg R103A-C” value was 0.39 mg/g; the “Cannabinoid quantity in Sample R103A” value amounted to 0.46 mg/g; the “Cannabinoid quantity in Sample R103B” value came to 0.35 mg/g.
As to `CCCCCc1cc(O)c2c(c1)OC(C)(C)c1ccc(C)cc1-2` [CBN, Cannabinol], the “Cannabinoid quantity in Sample RB Fat” value in series [1] came out at 0.3 mg/mL. In series [2] (sucrose), the “Cannabinoid quantity, Avg R103A-C” value is 1.03 mg/g; the “Cannabinoid quantity in Control R104” value came to 0.57 mg/g; the “Cannabinoid quantity in Sample R104A” value turned out to be 1.17 mg/g; the “Cannabinoid quantity in (Retest) Sample R104A” value turned out to be 1.26 mg/g. Moreover, in series [2] (sucrose), the “Cannabinoid quantity in Sample R104B” value was 1.28 mg/g, the “Cannabinoid quantity in Sample R103A” value is given as 0.93 mg/g and the “Cannabinoid quantity in Sample R103B” value is 1 mg/g. Further, in series [2], the “Cannabinoid quantity in Sample S201” value worked out at 0.79 mg/g; the “Cannabinoid quantity in Sample S103” value came out at 2.33 mg/g; the “Change in cannabinoid quantity” value is given as “significant reduction”.
Take `CCCCCc1cc2c(c(O)c1C(=O)O)[C@@H]1C=C(C)CC[C@H]1C(C)(C)O2` [THC-A, Tetrahydrocannabinolic acid]: the “Cannabinoid quantity in Sample RB Fat” value in series [1] stood at 37.07 mg/mL. Further, in series [2] (sucrose), the “Cannabinoid quantity, Avg R103A-C” value is given as 5.46 mg/g; the “Cannabinoid quantity in Sample R103A” value came to 7.13 mg/g; the “Cannabinoid quantity in Sample R103B” value was found to be 6.18 mg/g.
With `CCCc1cc(O)c2c(c1)OC(C)(C)[C@@H]1CCC(C)=C[C@@H]21` [THCV, Tetrahydrocannabivarin], in series [2] (sucrose), the “Cannabinoid quantity, Avg R103A-C” value stood at 0.16 mg/g; the “Cannabinoid quantity in Control R104” value amounted to 0.34 mg/g; the “Cannabinoid quantity in Sample R104A” value was 0.54 mg/g; the “Cannabinoid quantity in (Retest) Sample R104A” value was determined as 0.52 mg/g. Moreover, in series [2] (sucrose), the “Cannabinoid quantity in Sample R104B” value was 0.55 mg/g, the “Cannabinoid quantity in Sample R103A” value was found to be 0.14 mg/g and the “Cannabinoid quantity in Sample R103B” value was determined as 0.2 mg/g. In series [2], the “Cannabinoid quantity in Sample S201” value is 0.41 mg/g; the “Cannabinoid quantity in Sample S103” value is recorded as 0.51 mg/g; the “Change in cannabinoid quantity” value was “marginal differences”.
Turning to `CCCc1cc2c(c(O)c1C(=O)O)C1C=C(C)CCC1C(C)(C)O2` (centres unmarked) [THCV-A], the “Cannabinoid quantity in Sample RB Fat” value in series [1] is 0.26 mg/mL. In series [2] (sucrose), the “Cannabinoid quantity, Avg R103A-C” value amounted to 0.02 mg/g; the “Cannabinoid quantity in Control R104” value is “undetectable quantities”; the “Cannabinoid quantity in Sample R104A” value is “negligible or no detectable quantities”; the “Cannabinoid quantity in Sample R103A” value came to 0.05 mg/g.
As for `CCCCCc1cc(O)c2c(c1)OC(C)(C)[C@@H]1CC=C(C)C[C@@H]21` [Δ8-THC, Δ-8-tetrahydrocannabinol], in series [2] (sucrose), the “Cannabinoid quantity, Avg R103A-C” value came to 0.06 mg/g; the “Cannabinoid quantity in Control R104” value amounted to 1.7 mg/g; the “Cannabinoid quantity in Sample R104A” value is recorded as “no detectable quantities”; the “Cannabinoid quantity in (Retest) Sample R104A” value stood at 1.36 mg/g. Also, the “Cannabinoid quantity in Sample R104B” value in series [2] (sucrose) worked out at 0.14 mg/g.
As to `CCCCCc1cc(O)c2c(c1)OC(C)(C)[C@@H]1CCC(C)=C[C@@H]21` [Δ9-THC, Δ-9-tetrahydrocannabinol, reference compound], the “Cannabinoid quantity in Sample RB Fat” value in series [1] was 12.85 mg/mL. Also, in series [2] (sucrose), the “Cannabinoid quantity, Avg R103A-C” value was found to be 15.79 mg/g; the “Cannabinoid quantity in Control R104” value is 35.37 mg/g; the “Cannabinoid quantity in Sample R104A” value was 57.13 mg/g; the “Cannabinoid quantity in (Retest) Sample R104A” value was 57.45 mg/g. Further, in series [2] (sucrose), the “Cannabinoid quantity in Sample R104B” value is listed as 60.42 mg/g, the “Cannabinoid quantity in Sample R103A” value was found to be 15.56 mg/g and the “Cannabinoid quantity in Sample R103B” value is 16.18 mg/g. In series [2], the “Cannabinoid quantity in Sample S201” value turned out to be 40.04 mg/g; the “Cannabinoid quantity in Sample S103” value is 21.93 mg/g and 21.92 mg/g; the “Change in cannabinoid quantity” value is listed as “two-fold increase”. Further, in series [2] (sucrose, rapid cooling process vs Control R104), the “Increase in quantity, Sample R104A compared to the control sample” value is on record as 62%.

The values above are taken from patent publication US9815810B1, “Method of cannabinoid preservation through crystallization and other crystal structures” (Deep Cell […]., priority 2016, dated 2017).
